Each structure is given as a SMILES string. Where a name gives a salt, the structure may show the parent alone.

In the test the target is T1, recombinant human arginase 1 (Homo sapiens, UniProt P05089).
T1 sequence (P05089 1-322): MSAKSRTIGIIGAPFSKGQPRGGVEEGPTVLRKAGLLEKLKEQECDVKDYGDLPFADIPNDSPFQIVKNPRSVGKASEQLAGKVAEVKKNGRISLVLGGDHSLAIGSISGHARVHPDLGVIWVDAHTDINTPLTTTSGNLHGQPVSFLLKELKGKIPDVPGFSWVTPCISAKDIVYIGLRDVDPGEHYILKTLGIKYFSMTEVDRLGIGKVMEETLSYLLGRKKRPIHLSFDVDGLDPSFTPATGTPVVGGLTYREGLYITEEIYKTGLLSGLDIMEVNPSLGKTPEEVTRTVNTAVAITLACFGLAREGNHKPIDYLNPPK
As to the kind of experiment: Arginase inhibitory activity test (urea detection), arginase 1. The test is classed as biochemical. To be noted: recombinant human arginase 1, L-arginine substrate, 37° C. for 120 min, urea measurement; read-out: Arg 1 enzymatic potency. An excerpt: Arginase Inhibitory Activity Test
Urea was used as the standard.
For `CNS(=O)(=O)N1C[C@H](CCCB(O)O)[C@](N)(C(=O)O)C1` (racemic) [Example 2, (rac)trans-3-amino-4-(3-boronopropyl)-1-(N-methylsulfamoyl)pyrrolidine-3-carboxylic acid, (1:1) 2,2,2-trifluoroacetic Acid Salt], the IC50 is 1 to 101 µM.
As for `C[C@H](N)CNS(=O)(=O)N1C[C@H](CCCB(O)O)[C@](N)(C(=O)O)C1` (racemic) [Example 18, (rac)trans-3-amino-1-(N—((S)-2-aminopropyl)sulfamoyl)-4-(3-boronopropyl)pyrrolidine-3-carboxylic Acid (Diastereomers), 2,2,2-trifluoroacetic Acid Salt (1:2)], the IC50 lay within 0.1 to 1 µM.
As for `N[C@@H]1CCCCC1NS(=O)(=O)N1C[C@H](CCCB(O)O)[C@](N)(C(=O)O)C1` (mixture of isomers) [Example 20, (rac)trans-3-amino-1-(N-((rac)cis-2-aminocyclohexyl)sulfamoyl)-4-(3-boronopropyl)pyrrolidine-3-carboxylic Acid (Diastereomers), 2,2,2-trifluoroacetic Acid Salt (1:2)], the IC50 is greater than 101 µM.
Then `CC(C)C(NS(=O)(=O)N1CC(CCCB(O)O)C(N)(C(=O)O)C1)C(=O)O` (racemic) [Example 11, (rac)trans-3-amino-4-(3-boronopropyl)-1-(N—((S)-1-carboxy-2-methylpropyl)sulfamoyl)pyrrolidine-3-carboxylic Acid (Diastereomer), (1:1) 2,2,2-trifluoroacetic Acid Salt], with 1 to 101 µM; and `NC(=O)CNS(=O)(=O)N1C[C@H](CCCB(O)O)[C@](N)(C(=O)O)C1` (racemic) [Example 7, (rac)trans-3-amino-1-(N-(2-amino-2-oxoethyl)sulfamoyl)-4-(3-boronopropyl)pyrrolidine-3-carboxylic Acid, (1:1) 2,2,2-trifluoroacetic Acid Salt], with 1 to 101 µM; and `CCOC(=O)[C@]1(N)CN(S(=O)(=O)NCCN)C[C@@H]1CCCB(O)O` (racemic) [Example 14, (rac)(3-(trans-4-amino-1-(N-(2-aminoethyl)sulfamoyl)-4-(ethoxycarbonyl)pyrrolidin-3-yl)propyl)boronic Acid, (1:2) 2,2,2-trifluoroacetic Acid Salt], with 0.1 to 1 µM.

The values are drawn from US11655260B2, “Heterocyclic compounds as arginase inhibitors” (Guangdong Newopp Biopharmaceuticals Co., Ltd., priority 2017, dated 2023).
